One test concerns MV4;11. Put plainly: Cell growth assay, MV4;11 AML cell line. It is filed as cell-based, human. The method, then: (§1) For all other cell lines, compounds were serially diluted in medium and dispensed in triplicate in 96-well plates (0.1% DMSO final for assay) followed by the addition of exponentially growing cells at densities ranging from 5,000 to 30,000 cells/well. Cells were also seeded into 2 additional control wells containing vehicle (0.1% DMSO). […] To determine the estimated cell number in each well, cells that were counted in the control well were diluted 3-fold for an 8-point dilution series, and transferred to 384-well plates in duplicate, 20 μL per well. Cells in all other wells were diluted 4-fold and transferred to 384-well plates in duplicate, 20 μL per well. 20 μL of CellTiter-Glo (Promega) was subsequently added to all wells and luminescence was detected using a SPECTRAmax M3. The control well dilution series was fit to a linear regression and used as a standard for calculating the estimated cell number for each well. For days 7 and 10, total estimated cell number represents the split-adjusted theoretical cell number.

In the next test the test system is MOLM-14. Briefly: Cell growth assay, MOLM-14 AML cell line. It is filed as cell-based, human. The method, then: as §1
The mark [1] stands for this setting: Homo sapiens, MV4-11, 240 h, day 10, cells passaged, fresh compound added on days 3 and 7, read-out: MV 4;11 GI50 day 10.
[2] abbreviates: Homo sapiens, MOLM-14, 240 h, day 10, cells passaged, fresh compound added on days 3 and 7, read-out: MOL M14 G150 day 10.
Setting [3] is: day 10, cells passaged, fresh compound added on days 3 and 7, read-out: MV 4;11 GI50 day 10.
The mark [4] stands for this setting: day 10, cells passaged, fresh compound added on days 3 and 7, read-out: MOL M14 G150 day 10.

Molecules are shown by their SMILES. Read-outs that look alike come from different tables or passages of the source.

On to `CN(CCF)[C@H]1CCC2=CC3=CC[C@]4(C)C(c5ccc6ccncc6c5)CC[C@H]4[C@@]34CC[C@]2(C1)O4` (stereo partly drawn) [29B, β-2-fluoroethylmethylamine], for which the values for the GI50 in the test with MV4;11 (setting [1]) and with MOLM-14 (setting [2]) were 7 nM and 14 nM, respectively.

Turning to `C[C@]12CC=C3C=C4CC[C@@H]([N+](C)(C)[O-])CC45CC[C@]3(O5)[C@@H]1CC[C@@H]2c1ccc2ccncc2c1` [14ANO, 14A-N-Oxide], the GI50 in the test on MV4;11 (setting [1]) is 1.75 nM; in the test with MOLM-14 (setting [2]), 14 nM.

Take `C[C@]12CC=C3C=C4CC[C@H](NCCS(N)(=O)=O)C[C@]45CCC3(O5)[C@@H]1CC[C@@H]2c1ccc2ccncc2c1` [71B]: the results for the GI50 with MV4;11 (setting [1]) and with MOLM-14 (setting [2]) were 18 nM and 50 nM, respectively.

For the compound `C[C@]12CC=C3C=C4CC[C@@H](O)CC45CC[C@]3(O5)[C@@H]1CC[C@@H]2c1ccc2ccncc2c1` [17A, α-alcohol], the GI50 in the test on MV4;11 (setting [3]) amounted to 1 nM; in the test with MOLM-14 (setting [4]) it was 6 nM.

Consider `C[C@]12CC=C3C=C4CC[C@@H](N5CC(O)C5)C[C@]45CCC3(O5)[C@@H]1CC[C@@H]2c1ccc2ccncc2c1` [70A, α-hydroxyazetidine], for which the values for the GI50 with MV4;11 (setting [1]) and in the test on MOLM-14 (setting [2]) were 7 nM and 12 nM, respectively.

As to `CNC(=O)O[C@@H]1CCC2=CC3=CC[C@]4(C)[C@@H](c5ccc6ccncc6c5)CC[C@H]4[C@@]34CCC2(C1)O4` [68A, α-monomethylcarbamate], the GI50 in the test on MV4;11 (setting [3]) is 120 nM; in the test on MOLM-14 (setting [4]), 150 nM.

As to `CN(CC1(C)COC1)[C@H]1CCC2=CC3=CC[C@]4(C)[C@@H](c5ccc6ccncc6c5)CC[C@H]4[C@@]34CCC2(C1)O4` [42B, β-N-methyl-1-(3-methyl-3-oxetanyl)methanamine], the GI50 in the test on MV4;11 (setting [1]) amounted to 7.5 nM; with MOLM-14 (setting [2]), 20 nM.

With `C[C@]12CC=C3C=C4CC[C@H](N5CCCC5)C[C@]45CC[C@]3(O5)[C@@H]1CC[C@@H]2c1ccc2ccncc2c1` [19B, β-pyrrolidine], the GI50 was 8 nM in the test with MV4;11 (setting [1]); 15 nM in the test with MV4;11 (Homo sapiens, MV4-11, day 7, fresh compound added on day 3, read-out: MV4;11 GI50 day 7); 10 nM in the test with MOLM-14 (setting [2]); 16 nM in the test on MOLM-14 (Homo sapiens, MOLM-14, day 7, fresh compound added on day 3, read-out: MOL M14 GI50 day 7).

On to `CN(CC(F)F)[C@H]1CCC2=CC3=CC[C@]4(C)C(c5ccc6ccncc6c5)CC[C@H]4[C@@]34CC[C@]2(C1)O4` (stereo partly drawn) [30B, β-2,2-difluoroethylmethylamine], for which the GI50 in the test with MV4;11 (setting [1]) was 20 nM; in the test with MOLM-14 (setting [2]) it was 55 nM.

With `C[C@]12CC=C3C=C4CC[C@H](N5CC[C@H](F)C5)C[C@]45CC[C@]3(O5)[C@@H]1CC[C@@H]2c1ccc2ccncc2c1` [36B, β-(S)-3-fluoropyrrolidine], the GI50 came to 19 nM with MV4;11 (setting [1]) and 95 nM in the test with MOLM-14 (setting [2]).

As to `CN(C)[C@H]1CCC2=CC3=CC[C@]4(C)C(C(=O)Nc5cccnc5)=CC[C@H]4[C@@]34CCC2(C1)O4` [49B, β-dimethylamine 17,18-unsaturated amidepyridine], the GI50 in the test with MV4;11 (Homo sapiens, MV4-11, 168 h, day 7, printed as symbol, read-out: MV4;11 GI50 day 7) was above 1000 nM; in the test with MOLM-14 (Homo sapiens, MOLM-14, 168 h, day 7, printed as symbol, read-out: MOL M14 GI50 day 7), above 1000 nM.

Take `CC1(O)CN([C@@H]2CCC3=CC4=CC[C@]5(C)[C@@H](c6ccc7ccncc7c6)CC[C@H]5C45CC[C@]3(C2)O5)C1` [69A, α-hydroxymethylazetidine]: the values for the GI50 in the test on MV4;11 (setting [1]) and in the test on MOLM-14 (setting [2]) were 9.5 nM and 30 nM, respectively.

Take `CO[C@@H]1CCC2=CC3=CC[C@]4(C)[C@@H](c5ccc6ccncc6c5)CC[C@H]4[C@@]34CCC2(C1)O4` [64A, α-methylether]: the GI50 in the test on MV4;11 (setting [3]) amounted to 15 nM; in the test with MOLM-14 (setting [4]) it was 45 nM.

Consider `[2H]C([2H])([2H])N([C@H]1CCC2=CC3=CC[C@]4(C)C(c5ccc6ccncc6c5)CC[C@H]4[C@@]34CC[C@]2(C1)O4)C([2H])([2H])[2H]` (stereo partly drawn) [26B, β-deuterodimethylamine], for which the GI50 was found to be 4 nM with MV4;11 (setting [1]) and 6 nM in the test with MOLM-14 (setting [2]).

Turning to `CC(C)N[C@H]1CCC2=CC3=CC[C@]4(C)[C@@H](c5ccc6ccncc6c5)CC[C@H]4[C@@]34CC[C@]2(C1)O4` [32B, β-isopropylamine], the results for the GI50 in the test with MV4;11 (setting [1]) and with MOLM-14 (setting [2]) were 27 nM and 55 nM, respectively.

In the case of `C[C@]12CC=C3C=C4CC[C@H](N5C[C@H](O)C[C@H]5C(=O)O)C[C@]45CCC3(O5)[C@@H]1CCC2c1ccc2ccncc2c1` (stereo partly shown) [65B], the GI50 with MV4;11 (setting [1]) was determined as 3 nM; in the test on MOLM-14 (setting [2]) it was 16 nM.

Values taken from patent US10273241B2 (President and Fellows of Harvard College, priority 2013, dated 2019).
